# Measurements taken from publication PMC13586173, “Synthetic cannabinoid receptor agonists inhibit the cardiac voltage-gated potassium channel hERG” (Acta Pharmacologica Sinica, 2026).
# Columns and labels:
# [1] = cited from earlier work
# hERG S649A = biological target: T1, hERG S649A (Homo sapiens, UniProt Q12809, S649A); experiment: Manual patch-clamp (MPC) on hERG S649A, transiently transfected CHO-K1 cells; type: cell-based
# T1 construct: expressed in transfected cells; host or cells: CHO-K1 CCL-61 (ATCC), transient, co-transfected with pcDNA3-GFP
# T1 sequence (Q12809 whole entry S649A): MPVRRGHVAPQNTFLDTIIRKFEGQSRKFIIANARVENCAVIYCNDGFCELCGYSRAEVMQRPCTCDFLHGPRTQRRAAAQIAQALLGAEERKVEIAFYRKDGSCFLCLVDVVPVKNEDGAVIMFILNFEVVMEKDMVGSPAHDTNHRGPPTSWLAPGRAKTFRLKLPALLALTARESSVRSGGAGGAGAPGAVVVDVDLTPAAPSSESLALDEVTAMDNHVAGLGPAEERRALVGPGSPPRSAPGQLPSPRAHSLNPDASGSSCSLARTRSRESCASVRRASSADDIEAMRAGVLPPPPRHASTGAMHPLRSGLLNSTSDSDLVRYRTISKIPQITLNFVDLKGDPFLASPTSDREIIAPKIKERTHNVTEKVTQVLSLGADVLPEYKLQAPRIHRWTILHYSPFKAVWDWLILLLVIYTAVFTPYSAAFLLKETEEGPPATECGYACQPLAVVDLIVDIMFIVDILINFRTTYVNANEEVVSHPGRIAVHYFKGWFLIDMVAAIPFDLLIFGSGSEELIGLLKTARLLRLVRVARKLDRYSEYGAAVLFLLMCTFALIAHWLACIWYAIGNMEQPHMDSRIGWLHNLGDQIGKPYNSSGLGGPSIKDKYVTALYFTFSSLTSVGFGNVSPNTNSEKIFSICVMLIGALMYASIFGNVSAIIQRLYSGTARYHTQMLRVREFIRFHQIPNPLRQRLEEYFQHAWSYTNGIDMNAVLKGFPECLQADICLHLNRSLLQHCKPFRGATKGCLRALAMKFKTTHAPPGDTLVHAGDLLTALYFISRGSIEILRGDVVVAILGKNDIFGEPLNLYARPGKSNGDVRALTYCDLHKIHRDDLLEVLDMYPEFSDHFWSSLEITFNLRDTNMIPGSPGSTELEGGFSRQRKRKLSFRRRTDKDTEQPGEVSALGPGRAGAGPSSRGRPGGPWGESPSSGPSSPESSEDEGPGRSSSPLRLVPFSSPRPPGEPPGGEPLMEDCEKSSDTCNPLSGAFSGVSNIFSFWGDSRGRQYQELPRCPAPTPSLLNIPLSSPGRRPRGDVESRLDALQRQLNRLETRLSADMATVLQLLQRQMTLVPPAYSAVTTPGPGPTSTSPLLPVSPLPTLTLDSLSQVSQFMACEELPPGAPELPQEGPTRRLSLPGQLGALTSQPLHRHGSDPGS
# Description: The hERG wild-type and Y652A constructs were kindly provided by Dr. Nicole Schmitt, and the eGFP-pcDNA3 construct was kindly provided by Dr. Antonios Pantazis. The S624A and S649A constructs were generated in-house from the wild-type template using the QuikChange II XL Site-Directed Mutagenesis Kit (Agilent Technologies, Santa Clara, CA, USA), in accordance with the manufacturer’s instructions. Mutagenesis primers were designed using the Agilent QuikChange Primer Design Program. Briefly, PCR amplification was performed according to the recommended cycling conditions, followed by DpnI digestion for 1 h to selectively degrade the parental (methylated) DNA template. The reaction products were then transformed into XL10-Gold ultracompetent cells. All constructs were verified by whole-plasmid sequencing (Eurofins Genomics, Germany) to confirm sequence accuracy.
# Manual patch-clamp (MPC) recordings were performed 24–48 h post-transfection. Patch pipettes were pulled from borosilicate glass and had resistances of 4–7 MΩ when filled with intracellular solution. Coverslips with CHO-K1 cells were placed in a recording chamber and continuously perfused at room temperature (22–24 °C) with extracellular solution using a gravity-fed perfusion system. […] Compounds were applied to the recorded cells by a pressurized, automated OctaFlow perfusion system (ALA Scientific Instruments). […]
# KV7.1/KCNE1 = KV7.1/KCNE1 (Homo sapiens, UniProt P51787); experiment: Automated patch-clamp (APC, population patch), CHO cells stably expressing human KV7.1/KCNE1; type: cell-based
# Chain of KV7.1/KCNE1 (P51787 whole entry): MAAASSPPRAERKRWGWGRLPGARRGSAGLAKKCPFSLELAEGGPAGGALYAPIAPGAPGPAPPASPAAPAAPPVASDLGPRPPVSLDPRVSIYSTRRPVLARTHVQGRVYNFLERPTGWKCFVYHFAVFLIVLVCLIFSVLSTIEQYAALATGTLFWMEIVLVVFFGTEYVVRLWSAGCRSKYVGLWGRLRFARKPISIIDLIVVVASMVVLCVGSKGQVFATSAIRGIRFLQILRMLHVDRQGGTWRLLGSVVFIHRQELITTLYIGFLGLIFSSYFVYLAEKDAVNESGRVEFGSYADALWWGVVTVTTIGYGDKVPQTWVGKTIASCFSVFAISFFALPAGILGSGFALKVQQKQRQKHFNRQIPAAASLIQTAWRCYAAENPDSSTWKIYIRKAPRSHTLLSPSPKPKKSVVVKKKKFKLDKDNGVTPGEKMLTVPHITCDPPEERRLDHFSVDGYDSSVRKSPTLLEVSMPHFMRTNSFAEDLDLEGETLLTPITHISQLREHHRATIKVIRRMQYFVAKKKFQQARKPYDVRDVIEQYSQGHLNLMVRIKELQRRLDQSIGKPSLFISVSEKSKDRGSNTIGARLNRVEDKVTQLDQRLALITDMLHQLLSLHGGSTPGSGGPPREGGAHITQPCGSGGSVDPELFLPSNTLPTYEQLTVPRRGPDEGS
structure (smiles),measurement,setting,value
"COC(=O)C(NC(=O)c1nn(CCCCCF)c2ccccc12)C(C)(C)C (stereo not shown) [5F-MDMB-PINACA, methyl 2-{[1-(5-fluoropentyl)-1H-indazole-3-carbonyl]amino}-3,3-dimethylbutanoate]","concentration in post-mortem cases, blood or serum",[1]; blood or serum samples,approximately 2 ng/mL
same,"concentration in post-mortem case, heart muscle",[1]; heart muscle,1.82 ng/mL
same,IC50,hERG S649A,16.7 µM
same,IC50,KV7.1/KCNE1,71.4 µM
same,Gmax effect on hERG versus KV7.1/KCNE1 (in words),"KV7.1/KCNE1; 10 µM, both channels by APC",effects only on hERG
same,effect on KV7.1/KCNE1 (in words),KV7.1/KCNE1; APC,small effect on KV7.1/KCNE1
same,KV7.1/KCNE1 channel Efficacy (max reduction in Gmax) Gmin,"KV7.1/KCNE1; best fit, 1 = no reduction of Gmax, 0 = complete reduction",0
